Measured values: patent US7132553B2, “Product comprising an inhibitor of the transduction of heterotrimeric G protein signals combined with an anti-hypertensive agent for therapeutic use in the treatment of arterial hypertension” (Societe de Conseils de Recherches et d'Applications …, priority 2000, dated 2006)

Experiments:
[1] = system: spontaneously hypertensive rats (SHR); assay: Arterial pressure in anaesthetized spontaneously hypertensive rats (carotid catheter); assay type: in vivo; conditions: SHR rat, single intravenous injection, verapamil 0.1 or 0.3 mg/kg, captopril 1 mg/kg; for time of return of arterial pressure to initial values after injection: G protein inhibitor 1 mg/kg; for effect on arterial pressure (in words): G protein inhibitor 1 mg/kg (FIG. 1)
Protocol: (§1) 13/14 week old male SHR rats (Charles River France) are anaesthetized using pentobarbital (Sanofi) (60 mg/kg/IP). […] After a stabilization period of 10 minutes, the product or two products simultaneously are administered and their effects are monitored for 20 minutes.
(§2) For administration purposes, 7-(2-amino-1-oxo-3-thiopropyl)-8-(cyclohexylmethyl)-2-phenyl-5,6,7,8-tetrahydro-imidazo[1,2a]pyrazine, verapamil (Sigma, USA) and captopril (Sigma, USA) can be dissolved in an aqueous solution of NaCl at 0.9%.

[2] = system: spontaneously hypertensive rats (SHR); assay: Heart rate in anaesthetized spontaneously hypertensive rats (carotid catheter); assay type: in vivo; design: Frequency difference (Δ) (reduction in heart rate): unit not given here; conditions: SHR rat; for reduction in heart rate, maximum difference (delta): baseline 328 to 371 beats per minute (FIG. 2); for Frequency difference (Δ) (reduction in heart rate): single product, intravenous, monitored 20 minutes
Protocol: as §1, §2

Compound | time of return of arterial pressure to initial values after injection [1] | effect on arterial pressure (in words) [1] | reduction in heart rate, maximum difference (delta) ([2]; 0.1 mg/kg intravenous) | reduction in heart rate, maximum difference (delta) ([2]; 0.3 mg/kg intravenous) | Frequency difference (Δ) (reduction in heart rate) ([2]; dose 0.1 mg/kg) | Frequency difference (Δ) (reduction in heart rate) ([2]; dose 0.3 mg/kg) | Frequency difference (Δ) (reduction in heart rate) ([2]; dose 1 mg/kg) | change of heart rate (in words) ([2]; single products, single intravenous injection (FIG. 2)) | reduction in heart rate, maximum difference (delta) ([2]; 1 mg/kg intravenous)
COc1ccc(CCN(C)CCCC(C#N)(c2ccc(OC)c(OC)c2)C(C)C)cc1OC (centres unmarked) [Verapamil, verapamil] | 20 min | immediate reduction | 32 | 56 | 28 | 56 | – | – | –
C[C@H](CS)C(=O)N1CCC[C@H]1C(=O)O [Captopril, captopril] | 20 min | immediate reduction | – | – | – | – | 1 | does not change the heart rate at all | –
NC(CS)C(=O)N1CCn2cc(-c3ccccc3)nc2C1CC1CCCCC1 (centres unmarked) [Compound 2, 7-(2-amino-1-oxo-3-thiopropyl)-8-(cyclohexylmethyl)-2-phenyl-5,6,7,8-tetrahydroimidazo[1,2a]pyrazine] | 20 min | immediate reduction | – | – | – | – | 44 | – | 44
